Format in all cases: in vivo
Test [1] deals with redstem (purple redstem, Ammannia coccinea). The test is described as follows: Test F flooded paddy test. To be noted: Flood. From the text:
(§1) Plant species in the flooded paddy test consisted of one stand of 9 or 10 water seeded rice seedlings (Rice, W. S. Jap, Oryza sativa cv. ‘Japonica—M202’ or Rice, W. S. Ind, ‘Indica’), and two stands of 3 or 4 transplanted rice seedlings (Oryza sativa cv. ‘Japonica—M202’), Monochoria (Monochoria vaginalis), sedge, umbrella (small-flower umbrella sedge, Cyperus difformis), hardstem bulrush (Scirpus juncoides), redstem (purple redstem, Ammannia coccinea), rice flatsedge (Cyperus iria), bearded sprangletop (Leptochloa fascicularis), barnyardgrass (Echinochloa crus-galli), waterplantain (common waterplantain, Alisma plantago-aquatica), and late watergrass (Echinochloa oryzicola) grown to the 2 to 2.5 leaf stage for testing. Potted plants were grown in a greenhouse with day/night temperature settings of 30/27° C., and supplemental balanced lighting was provided to maintain a 16-hour photoperiod. At time of treatment, test pots were flooded to 3 cm above the soil surface, treated by application of test compounds directly to the paddy water, and then maintained at that water depth for the duration of the test. Effects of treatments on rice and weeds were visually evaluated by comparison to untreated controls after 21 d. Plant response ratings, summarized in Table F, are based on a scale of 0 to 100 where 0 is no effect and 100 is complete control. A dash (-) response means no test result.

For test [2], the system named is waterplantain (common waterplantain, Alisma plantago-aquatica). The test is described as follows: Test F flooded paddy test. The settings on record: Flood.
Text: as §1

Test [3] relates to ivy-leaved morning glory (Ipomoea hederacea). The experiment in a line: Test G Pre-Emergence Protocol. To be noted: Ipomoea, pre-emergence, 312 h, evaluated after 13 days; for pest or weed control at 15.625 g/ha: 15.625 g ai/ha, read-out: Morning-glory, Ivy-leaved damage rating (100=total damage to plant; 0=no damage to plant); for pest or weed control at 62.5 g/ha: 62.5 g ai/ha, 100=total damage to plant, 0=no damage to plant, read-out: plant damage rating, Morningglory, Ivy-leaved; for pest or weed control at 250 g/ha: 250 g ai/ha, read-out: Morningglory, Ivy-leaved damage rating (100=total damage to plant; 0=no damage to plant). The method, then:
(§2) Seeds of corn (Zea mays), giant foxtail (Setaria faberi), barnyardgrass (Echinochloa crus-galli), ivy-leaved morning glory (Ipomoea hederacea), redroot pigweed (Amaranthus retroflexus) and velvetleaf (Abutilon theophrasti) were sown in standard soil in pots. After cultivation for one day under controlled conditions in a glasshouse (at 24/16° C., day/night; 14 hours light; 65% humidity), the plants were sprayed with an aqueous spray solution derived from the formulation of the technical active ingredient in acetone/water (50:50) solution containing 0.5% Tween 20 (polyoxyethylene sorbitan monolaurate, CAS RN 9005-64-5) to give a final dose of 15.625, 62.5 or 250 g/ha of test compound.
(§3) The test plants were then grown on under controlled conditions in a glasshouse (at 24/16° C., day/night; 14 hours light; 65% humidity) and watered twice daily. After 13 days the test was evaluated (100=total damage to plant; 0=no damage to plant). A dash (-) means no test result.

Test [4] deals with redroot pigweed (Amaranthus retroflexus). The experiment in a line: Test G Pre-Emergence Protocol. The settings on record: Amaranthus retroflexus, pre-emergence, 312 h, evaluated after 13 days; for pest or weed control at 15.625 g/ha: 15.625 g ai/ha; for pest or weed control at 15.625 g/ha / pest or weed control at 250 g/ha: read-out: Pigweed, Redroot damage rating (100=total damage to plant; 0=no damage to plant); for pest or weed control at 62.5 g/ha: 62.5 g ai/ha, 100=total damage to plant, 0=no damage to plant, read-out: plant damage rating, Pigweed, Redroot; for pest or weed control at 250 g/ha: 250 g ai/ha. As to the method:
as §2, §3

Test [5] has as its system velvetleaf (Abutilon theophrasti). The experiment in a line: Test G Pre-Emergence Protocol. The settings on record: Abutilon theophrasti, pre-emergence, 312 h, evaluated after 13 days; for pest or weed control at 15.625 g/ha: 15.625 g ai/ha; for pest or weed control at 15.625 g/ha / pest or weed control at 250 g/ha: read-out: Velvetleaf damage rating (100=total damage to plant; 0=no damage to plant); for pest or weed control at 62.5 g/ha: 62.5 g ai/ha, 100=total damage to plant, 0=no damage to plant, read-out: plant damage rating, Velvetleaf; for pest or weed control at 250 g/ha: 250 g ai/ha. As to the method: as §2, §3

For test [6], the system named is corn (Zea mays). The test is described as follows: Test G Pre-Emergence Protocol. The settings on record: Zea mays, pre-emergence, 312 h, evaluated after 13 days; for plant injury at 15.625 g/ha: 15.625 g ai/ha; for plant injury at 15.625 g/ha / plant injury at 250 g/ha: read-out: Corn damage rating (100=total damage to plant; 0=no damage to plant); for plant injury at 62.5 g/ha: 62.5 g ai/ha, 100=total damage to plant, 0=no damage to plant, read-out: plant damage rating, Corn; for plant injury at 250 g/ha: 250 g ai/ha. The method, then:
as §2, §3

The test system of test [7] is giant foxtail (Setaria faberi). The experiment in a line: Test G Pre-Emergence Protocol. The settings on record: Setaria faberi, pre-emergence, 312 h, evaluated after 13 days; for pest or weed control at 15.625 g/ha: 15.625 g ai/ha; for pest or weed control at 15.625 g/ha / pest or weed control at 250 g/ha: read-out: Foxtail, Giant damage rating (100=total damage to plant; 0=no damage to plant); for pest or weed control at 62.5 g/ha: 62.5 g ai/ha, 100=total damage to plant, 0=no damage to plant, read-out: plant damage rating, Foxtail, Giant; for pest or weed control at 250 g/ha: 250 g ai/ha. The method, then: as §2, §3

Test [8] deals with ivy-leaved morning glory (Ipomoea hederacea). The test is described as follows: Test G Post-Emergence Protocol. To be noted: Ipomoea, post-emergence, 312 h; for pest or weed control at 15.625 g/ha: 15.625 g ai/ha, evaluated after 13 days (100=total damage to plant; 0=no damage to plant), read-out: Morningglory, Ivy-leaved damage rating; for pest or weed control at 62.5 g/ha: 62.5 g ai/ha, read-out: Morningglory, Ivy-leaved damage rating (100=total damage to plant; 0=no damage to plant); for pest or weed control at 62.5 g/ha / pest or weed control at 250 g/ha: evaluated after 13 days; for pest or weed control at 250 g/ha: 250 g ai/ha, read-out: damage to plant, Morningglory, Ivy-leaved (100=total damage to plant; 0=no damage to plant). As to the method:
as §2, with “8 days” for “one day”
as §3

The test system of test [9] is redroot pigweed (Amaranthus retroflexus). The test is described as follows: Test G Post-Emergence Protocol. To be noted: Amaranthus retroflexus, post-emergence, 312 h; for pest or weed control at 15.625 g/ha: 15.625 g ai/ha, evaluated after 13 days (100=total damage to plant; 0=no damage to plant), read-out: Pigweed, Redroot damage rating; for pest or weed control at 62.5 g/ha: 62.5 g ai/ha, read-out: Pigweed, Redroot damage rating (100=total damage to plant; 0=no damage to plant); for pest or weed control at 62.5 g/ha / pest or weed control at 250 g/ha: evaluated after 13 days; for pest or weed control at 250 g/ha: 250 g ai/ha, read-out: damage to plant, Pigweed, Redroot (100=total damage to plant; 0=no damage to plant). The method, then: as §2, with “8 days” for “one day”
as §3

The subject of test [10] is corn (Zea mays). The experiment in a line: Test G Post-Emergence Protocol. To be noted: Zea mays, post-emergence, 312 h; for plant injury at 15.625 g/ha: 15.625 g ai/ha, evaluated after 13 days (100=total damage to plant; 0=no damage to plant), read-out: Corn damage rating; for plant injury at 62.5 g/ha: 62.5 g ai/ha, read-out: Corn damage rating (100=total damage to plant; 0=no damage to plant); for plant injury at 62.5 g/ha / plant injury at 250 g/ha: evaluated after 13 days; for plant injury at 250 g/ha: 250 g ai/ha, read-out: damage to plant, Corn (100=total damage to plant; 0=no damage to plant). As to the method: as §2, with “8 days” for “one day”
as §3

The subject of test [11] is giant foxtail (Setaria faberi). The test is described as follows: Test G Post-Emergence Protocol. To be noted: Setaria faberi, post-emergence, 312 h; for pest or weed control at 15.625 g/ha: 15.625 g ai/ha, evaluated after 13 days (100=total damage to plant; 0=no damage to plant), read-out: Foxtail, Giant damage rating; for pest or weed control at 62.5 g/ha: 62.5 g ai/ha, read-out: Foxtail, Giant damage rating (100=total damage to plant; 0=no damage to plant); for pest or weed control at 62.5 g/ha / pest or weed control at 250 g/ha: evaluated after 13 days; for pest or weed control at 250 g/ha: 250 g ai/ha, read-out: damage to plant, Foxtail, Giant (100=total damage to plant; 0=no damage to plant). As to the method: as §2, with “8 days” for “one day”
as §3

Take `Cc1ccc(C2CN(C)C(=O)C2C(=O)Nc2ccccc2F)cc1F` (stereo not shown) [Compound 465]: the “Plant response rating: Redstem” value in test [1] (32 g ai/ha) is 0; in test [1] (64 g ai/ha), 0; in test [1] (125 g ai/ha) it was 0; in [1] (250 g ai/ha), 45. Moreover, the “Plant response rating: Waterplantain” value in [2] (32 g ai/ha) is 0; in test [2] (64 g ai/ha), 40; in test [2] (125 g ai/ha) it was 90; in test [2] (250 g ai/ha), 100.

Consider `CN1CC(c2cccc(OC(F)F)c2)C(C(=O)Nc2ccc(F)cc2F)C1=O` (stereo not shown) [Compound 617], for which the “Plant response rating: Redstem” value in test [1] (32 g ai/ha), in [1] (64 g ai/ha), in test [1] (125 g ai/ha) and in [1] (250 g ai/ha) was 0 in each case. The “Plant response rating: Waterplantain” value in test [2] (32 g ai/ha) was 0; in test [2] (64 g ai/ha) it was 75; in test [2] (125 g ai/ha), 85; in test [2] (250 g ai/ha), 90.

`CN1C[C@H](c2ccc(C(F)(F)F)cc2)[C@@H](C(=O)Nc2cccnc2F)C1=O` [Compound 1396]: the pest or weed control at 15.625 g/ha in test [3] is 0%; in test [4], 80%; in test [5] it was 40%; in test [7] it was 90%; in test [8] it was 40%; in test [9] it was 70%. For the same compound, in test [11], the pest or weed control at 15.625 g/ha was 80%. For the same compound, the pest or weed control at 62.5 g/ha in [3] turned out to be 70%; in test [4], 80%; in test [5], 70%; in [7], 90%; in test [8], 60%; in test [9] it was 70%. For the same compound, the pest or weed control at 62.5 g/ha in test [11] was 80%. Also, the pest or weed control at 250 g/ha in test [3] came to 70%; in test [4] it was 80%; in test [5], 80%; in [7], 100%; in test [8], 60%; in test [9], 80%. Besides, the pest or weed control at 250 g/ha in [11] is 80%. For the same compound, the plant injury at 15.625 g/ha in the test with corn (Zea mays) [6] and in the test on corn (Zea mays) [10] was 70% throughout. In addition, the plant injury at 62.5 g/ha in the test with corn (Zea mays) [6] and in the test on corn (Zea mays) [10] was 80% in each case. Moreover, the plant injury at 250 g/ha in the test with corn (Zea mays) [6] came out at 80%; in the test on corn (Zea mays) [10], 70%.

As for `CN1C[C@H](c2ccc(Cl)cc2)[C@@H](C(=O)Nc2cccc(F)n2)C1=O` [Compound 1399], the pest or weed control at 15.625 g/ha in test [3] worked out at 0%; in [4], 0%; in test [5], 0%; in test [7], 90%; in test [8] it was 10%; in [9] it was 0%. The pest or weed control at 15.625 g/ha in test [11] was 60%. For the same compound, the pest or weed control at 62.5 g/ha in test [3] turned out to be 50%; in test [4] it was 30%; in test [5], 40%; in [7], 90%; in test [8] it was 30%; in test [9] it was 20%. Besides, the pest or weed control at 62.5 g/ha in [11] worked out at 80%. Moreover, the pest or weed control at 250 g/ha in test [3] was found to be 60%; in test [4], 80%; in test [5], 70%; in test [7], 90%; in test [8], 70%; in test [9], 60%. Also, the pest or weed control at 250 g/ha in test [11] was 80%. For the same compound, the plant injury at 15.625 g/ha in the test on corn (Zea mays) [6] and with corn (Zea mays) [10] was 0% each time. In addition, the plant injury at 62.5 g/ha in the test on corn (Zea mays) [6] is 10%; in the test on corn (Zea mays) [10], 0%. Further, the plant injury at 250 g/ha in the test on corn (Zea mays) [6] is 60%; in the test on corn (Zea mays) [10], 30%.

Source of the values: patent US12077503B2, “Substituted cyclic amides and their use as herbicides” (FMC CORPORATION, priority 2015, dated 2024).
